According to the PolyMetriX glass transition set:

| glass transition temperature [°C] | Structure (SMILES) |
| --- | --- |
| 312.00 | *C(=O)Nc1ccc(C2(c3ccc(N4C(=O)c5ccc(*)cc5C4=O)cc3)CCC(CC)CC2)cc1 (repeat unit) |
| 225.00 | *Oc1ccc(NC(=O)c2cc(NC(=O)CCCN3C(=O)c4ccccc4C3=O)cc(C(=O)Nc3ccc(*)cc3)c2)cc1 (repeat unit) |
| 164.00 | */C=C/c1ccc(*)c(-c2cc(OCCC(C)C)c(OCCC(C)C)cc2-c2ccccc2)c1 (repeat unit) |
| 74.00 | *Oc1ccc(OC(=O)Oc2ccc(C(*)=O)cc2)cc1 (repeat unit) |
| -23.00 | *CC(*)(CC(=O)OCCCCCCC)C(=O)OCCCCCCC (repeat unit) |
| 169.00 | *C1C(=O)N(c2ccc(O[Si](C)(C)C(C)(C)C)cc2)C(=O)C1* (repeat unit) |
| 179.00 | *C(=O)Oc1ccc(OC(=O)c2ccc3c(c2)C(=O)N(c2ccc(S(=O)(=O)c4ccc(N5C(=O)c6ccc(*)cc6C5=O)cc4)cc2)C3=O)c(C(C)(C)C)c1 (repeat unit) |
| 36.00 | *CCCNC(=O)CNC(=O)C(Cc1ccccc1)NC(=O)CCCCCCCCC(=O)NC(Cc1ccccc1)C(=O)NCC(=O)NCCCOCCOCCO* (repeat unit) |
| 52.00 | *C(=O)OCCOCCOCCOCCOC(=O)c1ccc(N2C(=O)c3ccc(*)cc3C2=O)cc1 (repeat unit) |
| 94.00 | *CC(C)(C)COC(=O)Nc1ccc(Cc2ccc(NC(=O)O*)cc2)cc1 (repeat unit) |
| -60.00 | *CC(CC)(CC)COC(=O)Nc1ccc(C)c(NC(=O)O*)c1 (repeat unit) |
| 195.50 | *Oc1ccc(Oc2ccc(NC(=O)c3cc(C(=O)Nc4ccc(*)cc4)cc(C(C)(C)C)c3)cc2)cc1 (repeat unit) |
| 154.00 | *C(=O)Nc1cccc(Oc2ccc(C(=O)c3ccc(Oc4cccc(NC(=O)c5ccc(*)nc5)c4)cc3)cc2)c1 (repeat unit) |
| 76.00 | *CC(O)CN(CCO)S(=O)(=O)c1ccc(-c2ccc(S(=O)(=O)N(CCO)CC(O)COc3ccc(C(C)(C)c4ccc(O*)cc4)cc3)cc2)cc1 (repeat unit) |
| 46.00 | *Oc1ccc(CC(NC(=O)CCc2ccc(OC(=O)CCCCCCC(*)=O)cc2)C(=O)OC(C)C)cc1 (repeat unit) |
| -38.00 | *CCOCCOC(=O)C(CCC)C(=O)O* (repeat unit) |
| 75.00 | *CCc1ccc(CCNC(=O)CCCCCCCCCCCCCCCCC(=O)N*)cc1 (repeat unit) |
| 252.00 | *Oc1ccc(C(C)(C)c2ccc(Oc3ccc(C(=O)c4c(C(=O)c5ccc(*)cc5)c(-c5ccc(F)cc5)c(-c5ccc(F)cc5)c(-c5ccc(F)cc5)c4-c4ccc(F)cc4)cc3)cc2)cc1 (repeat unit) |
| 132.00 | *CCCC(=O)Oc1ccc(-c2ccc(OC(=O)c3ccc4c(c3)C(=O)N(*)C4=O)cc2)cc1 (repeat unit) |

| glass transition temperature [°C] | Structure (SMILES) |
| --- | --- |
| -4.00 | */C=C/C(COCc1ccccc1)C(*)COCc1ccccc1 (repeat unit) |
| 196.00 | *Oc1ccc(S(=O)(=O)c2ccc(Oc3c(C)cc(C(c4cc(C)c(*)c(C)c4)(C(F)(F)F)C(F)(F)F)cc3C)cc2C(O)(C(F)(F)F)C(F)(F)F)c(C(O)(C(F)(F)F)C(F)(F)F)c1 (repeat unit) |
| -53.00 | *CC(*)c1ccc(CCCCCCCCC)cc1 (repeat unit) |
| 98.00 | *OC(=O)c1ccc(/N=N/c2ccc(C(=O)OC3COC4C(*)COC34)cc2)cc1 (repeat unit) |
| 249.00 | *c1cc(C(=O)OCCC)cc(N2C(=O)CC(C3Cc4ccccc4C4C(=O)N(*)C(=O)C43)C2=O)c1 (repeat unit) |
| 250.00 | *Oc1ccc(NC(=O)c2ccc(S(=O)(=O)c3ccc(C(=O)Nc4ccc(Oc5ccc(C(c6ccc(*)cc6)(C(F)(F)F)C(F)(F)F)cc5)cc4)cc3)cc2)cc1 (repeat unit) |
| 33.50 | *Oc1ccc(C(C)(C)c2ccc(OC(=O)CCCCC(*)=O)c(C)c2)cc1C (repeat unit) |
| 13.00 | *CC(*)OCCCCCCCOc1ccc(-c2ccc(C#N)cc2)cc1 (repeat unit) |
| 122.50 | *CCCCCCNC(=O)c1ccccc1-c1ccccc1C(=O)N* (repeat unit) |
| 57.00 | *Oc1ccc(C(=O)OCCCOC(=O)c2ccc(*)cc2)cc1 (repeat unit) |
| 70.00 | *CC1CCC(COC(=O)c2cccc(C(=O)O*)c2)CC1 (repeat unit) |
| 91.00 | *OC(=O)C(Cc1ccccc1)NC(=O)CCCCCCC(=O)NC(Cc1ccccc1)C(=O)OC1COC2C(*)COC12 (repeat unit) |
| 277.00 | *c1ccc(Oc2ccccc2Oc2ccc(-n3c(=O)c4cc5c(=O)n(*)c(=O)c5cc4c3=O)cc2C(F)(F)F)c(C(F)(F)F)c1 (repeat unit) |
| 39.00 | *c1ccc(OCCCCCCCCCCCOC(=O)c2cccc(C(=O)OCCCCCCCCCCCOc3cccc(-c4nnc(*)s4)c3)c2)cc1 (repeat unit) |
| 335.00 | *Oc1ccc(C(=O)Nc2cc(NC(=O)c3ccc(*)cc3)cc(-c3nc4ccccc4[nH]3)c2)cc1 (repeat unit) |
| 125.00 | *CCOCCOCCOCCOCCOCCOc1ccc(C(=O)Nc2cc(NC(=O)c3ccc(O*)cc3)cc(-c3nc4ccccc4[nH]3)c2)cc1 (repeat unit) |
| 111.00 | *CCOCCOCCOc1cccc(NC(=O)c2cccc(C(=O)Nc3cccc(O*)c3)c2)c1 (repeat unit) |
| 362.00 | *c1cc(-n2c(=O)c3cc4c(=O)n(*)c(=O)c4cc3c2=O)c(O)cc1O (repeat unit) |
| 111.00 | *CC(O)COc1ccc(C(C)(C)c2ccc(OCC(O)COc3cccc(NC(=O)CCCC(=O)Nc4cccc(O*)c4)c3)cc2)cc1 (repeat unit) |

More lines, now with the values behind:

| Structure (SMILES) | glass transition temperature [°C] |
| --- | --- |
| *O[Si](*)(C)CCCOCCOCCOCCOC (repeat unit) | -64.21 |
| *Oc1ccc(Oc2ccc(/C=N/c3ccc(Oc4ccc(/N=C/c5ccc(*)cc5)cc4)cc3)cc2)cc1 (repeat unit) | 120.00 |
| *OC(CCc1ccccc1)CC(*)=O (repeat unit) | 18.00 |
| */C=C/CCCCCCCCCC* (repeat unit) | -53.00 |
| *CCCCOc1ccc(/C=C2\CC/C(=C\c3ccc(OCCCCOP(=O)(O*)OC)c(OC)c3)C2=O)cc1OC (repeat unit) | 75.00 |
| *CC(*)C(=O)N1CC[NH+](CC)CC1 (repeat unit) | 72.50 |
| *c1cccc(Oc2cccc(Oc3cccc(N4C(=O)c5c(c(-c6ccccc6)c(-c6ccc(Oc7ccc(-c8c(-c9ccccc9)c9c(c(-c%10ccccc%10)c8-c8ccccc8)C(=O)N(*)C9=O)cc7)cc6)c(-c6ccccc6)c5-c5ccccc5)C4=O)c3)c2)c1 (repeat unit) | 261.00 |
| *Sc1ccc(Sc2ccc(Sc3ccc4c(c3)C(=O)N(N3C(=O)c5ccc(*)cc5C3=O)C4=O)cc2)cc1 (repeat unit) | 223.50 |
| *CCC/C=C(/*)c1ccc(Cl)cc1 (repeat unit) | 16.00 |
| *c1cc(C(=O)OCC(F)(F)C(F)(F)C(F)(F)F)c(*)s1 (repeat unit) | 129.00 |
| *c1ccc(Oc2ccc(-c3ccc(-c4ccc(Oc5ccc(-c6c7c(c(*)c8ccccc68)C(=O)N(c6ccccc6)C7=O)cc5)c(C(F)(F)F)c4)s3)cc2C(F)(F)F)cc1 (repeat unit) | 287.00 |
| *c1ccc(Oc2cccc(-c3cc(-c4ccccc4)cc(-c4cccc(Oc5ccc(N6C(=O)c7ccc(Oc8ccc9c(c8)C(=O)N(*)C9=O)cc7C6=O)cc5)c4)n3)c2)cc1 (repeat unit) | 224.00 |
| *C(=O)Nc1ccc(Cc2ccc(NC(=O)c3ccc4c(c3)C(=O)N(c3ccc(S(=O)(=O)c5ccc(N6C(=O)c7ccc(*)cc7C6=O)cc5)cc3)C4=O)cc2)cc1 (repeat unit) | 324.00 |
| *c1ccc(Oc2ccc(S(=O)(=O)c3ccc(Oc4ccc(N5C(=O)c6ccc(Oc7ccc(C(C)(C)c8ccc(Oc9ccc%10c(c9)C(=O)N(*)C%10=O)cc8)cc7)cc6C5=O)cc4)cc3)cc2)cc1 (repeat unit) | 200.00 |
| *c1ccc(Oc2ccc(C(c3ccc(Oc4ccc(-c5nnc(*)c6c(-c7ccccc7)c(-c7ccc8ccccc8c7)c(-c7ccc8ccccc8c7)c(-c7ccccc7)c56)cc4)cc3)(C(F)(F)F)C(F)(F)F)cc2)cc1 (repeat unit) | 291.00 |
| *CCC1C(=O)N(CCCCNC(=O)C(F)(F)C(F)(F)C(F)(F)C(F)(F)C(F)(F)C(F)(F)C(F)(F)F)C(=O)C1* (repeat unit) | 100.00 |
| *N=P(*)(C)CCCC (repeat unit) | -51.00 |
| *C(=O)Nc1ccc(Oc2ccc(Oc3ccc(NC(=O)c4ccc5c(c4)C(=O)N(c4ccc(Oc6ccc(C7(c8ccc(Oc9ccc(N%10C(=O)c%11ccc(*)cc%11C%10=O)cc9)cc8)CC8CC7C7CCCC87)cc6)cc4)C5=O)cc3)cc2)cc1 (repeat unit) | 257.00 |
| *O[Si](*)(C)c1ccccc1 (repeat unit) | -28 |
| *CC(CSCCCC)O* (repeat unit) | -65.00 |
| *c1ccc(-c2ccc(-n3c(-c4ccc(Oc5ccc(C(=O)c6ccc(Oc7ccc(-c8nc9ccccc9n8*)cc7)cc6)cc5)cc4)nc4ccccc43)cc2)cc1 (repeat unit) | 268.00 |
| *c1ccc(Oc2ccc(P(C)(=O)c3ccc(Oc4ccc(C5(*)OC(=O)c6ccccc65)cc4)cc3)cc2)cc1 (repeat unit) | 263.00 |
| *CCCCCCOC(=O)CCC(=O)O* (repeat unit) | -50.00 |
| *c1cccc(C(=O)Nc2ccc(Oc3ccc(Oc4ccc(NC(=O)c5cccc(N6C(=O)c7ccc(-c8ccc9c(c8)C(=O)N(*)C9=O)cc7C6=O)c5)cc4)cc3)cc2)c1 (repeat unit) | 244.00 |
| */C=C/c1ccc(/C=C/c2ccc3c(c2)Sc2cc(*)ccc2N3c2ccc(OCCCCCCCCCCCC)cc2)cc1 (repeat unit) | 167.00 |
| *CCCCCCCCCCCCCCCCCCCCOC(=O)CC(=O)O* (repeat unit) | -35.10 |
